This is an account of results in EPA's ToxValDB 9.5 (doi:10.2903/j.efsa.2020.6058).

Converted amounts (≈) assume the structure as drawn.

One data set relates to Mus musculus. As to conditions: acute; oral; M; mortality.
Another data set relates to Apis mellifera. As to conditions: acute; oral; unspecified; mortality.
The next data set has as its system Serinus canaria. As to conditions: acute; oral; unspecified; mortality.
A further data set deals with Rattus norvegicus. The note with it: clinical signs.
Another data set has as its system Hypoaspis aculeifer. The note with it: chronic/long-term; reproduction.
The next data set concerns Anas platyrhynchos. The note with it: chronic/long-term.
Another data set relates to Neomysis kadiakensis. As to conditions: chronic/long-term; duration: 28 days; development.
The next data set relates to Tagia sp. The note with it: chronic/long-term; reproduction.
The next data set has as its system Bibionidae. As to conditions: chronic/long-term; duration: 28 days; development.
The subject of another data set is Typhlodromus pyri. Nature of the data set: LR50; higher = less toxic. As to conditions: not reported; mortality.

On to `CC1(C)C(C=C(Cl)Cl)[C@@H]1C(=O)O[C@@H](C#N)c1ccc(F)c(Oc2ccccc2)c1` (stereo partly drawn) [beta-Cyfluthrin], for which the figures for the LD50 with Mus musculus, in the data set with Apis mellifera and in the data set on Serinus canaria were 91 mg/kg-day, 0.05 µg/piece and 170 mg/kg-day, respectively. Moreover, the NOAEL (usually the highest tested level that showed no adverse finding) in the data set on Rattus norvegicus (reproduction developmental) is 1.39 mg/kg-day; in the data set on Rattus norvegicus (short-term, duration: 28 days), 1 mg/kg-day; with Rattus norvegicus (subchronic, duration: 13 weeks, inhalation) it was 0.02 mg/kg-day; with Anas platyrhynchos, 2.6 mg/kg-day. Besides, the NOEC came out at 0.97 mg/kg with Hypoaspis aculeifer; 0.0042 µg/L with Oncorhynchus mykiss (chronic/long-term, duration: 58 days, growth); 0.00041 µg/L with Neomysis kadiakensis; 0.825 mg/kg in the data set with Tagia sp.; 0.0057 µg/L in the data set on Bibionidae. Further, the 50% lethal concentration (LC50) (usually the concentration lethal to half of the exposed cells or organisms) with Oncorhynchus mykiss (acute, mortality) was found to be 0.068 µg/L (≈ 0.157 nM). Besides, in the data set with Typhlodromus pyri, the LR50 was determined as 0.0025 g/ha.
